Where two headings read alike, the source gives them in different places.
Experiment: Half-life of ADR destruction by UVA light in the presence of test compounds (decrease in absorbance at 480 nm)
Format: physicochemical
[1] = UVA light, 100 μM test compound with 0.5 μM riboflavin
[2] = UVA light, 100 μM test compound alone

Molecule | Half-Life of ADR Destruction, 100 μM Test Compound and 0.5 μM Riboflavin [1] [min] | Half-Life of ADR Destruction, 100 μM Test Compound [2] [min] | other results
Nc1c(-c2ccccc2)cc(-c2ccccc2)cc1-c1ccccc1 [2,4,6-Triphenylaniline] | 33.5 |  | 
Nc1cccc(S(=O)(=O)c2cccc(N)c2)c1 [3,3′-Diamino Phenylsulfone] |  |  | Half-Life of ADR Destruction, 100 μM Test Compound and 0.5 μM Riboflavin: 3.81 min
O=C(O)CCC(=O)c1ccc2ccccc2c1 [γ-Oxo-2-naphthalenebutyric acid] | 8.18 | 8.36 | 
CC(=O)c1ccc2cc(C)ccc2c1 [6-Methyl-2-acetonaphthone] | 7.53 | 8.85 | 
O=C(Oc1ccc2[nH]ccc2c1)c1ccccc1 [5-Benzoyloxy Indole] | 43.0 |  | 
CC=Cc1ccccc1O [2-Propenyl Phenol] |  |  | Half-Life of ADR Destruction, 100 μM Test Compound: 50.2 min
O=C(O)c1ccc2c(c1)-c1ccccc1-2 [2-Biphenylene Carboxylic Acid] | 15.8 |  | 
COc1ccc2cc(CCC(C)=O)ccc2c1 [Nabumetone, 4-(6-Methoxy-2-naphthyl)-butan-2-one, reference compound] | 8.6 | 27.4 | Half-Life of ADR Destruction, 100 μM Test Compound and 0.5 μM Riboflavin (UVA light, 100 μM test compound with 0.5 μM riboflavin, listed as 4-(6-Methoxy-2-naphthyl)-butan-2-one (Nabumetone)): 8.60 min
COc1cccc(N)c1 [3-Methoxy Aniline] | 30.1 |  | 
COc1cc(/C=C/CO)ccc1O[C@@H]1O[C@H](CO)[C@@H](O)[C@H](O)[C@H]1O [Coniferin] | 15.1 | 50.2 | 
Cn1cccc1 [1-Methyl Pyrrole] | 27.4 |  | 
Nc1ccc(CC(=O)O)cc1 [4-Amino Phenylacetic acid] | 4.63 | 50.2 | 
COc1ccc(CCO)cc1 [4-Methoxy Phenylethyl Alcohol] | 5.47 | 43.0 | 
O=C(O)c1cccc(C(=O)c2ccccc2)c1 [3-Benzophenone-carboxylic acid] |  |  | Half-Life of ADR Destruction, 100 μM Test Compound: 20.1 min; Half-Life of ADR Destruction, 100 μM Test Compound and 0.5 μM Riboflavin: 15.8 min
Nc1ccccc1S(=O)(=O)O [2-Amino Benzenesulfonic acid] | 20.1 |  | 
OCCCCc1ccccc1 [4-Phenyl-1-Butanol] | 43.0 | 43.0 | 
OCCc1ccc2ccccc2c1 [2-Naphthaleneethanol] | 33.5 | 50.2 | 
OCCCc1ccccc1 [3-Phenyl-1-Propanol] | 43.0 | 50.2 | 
NC(=O)c1cccc(N)c1 [3-Aminobenzamide] | 6.87 ± 1.20 |  | 
O=Cc1ccc2ccccc2c1 [2-Naphthaldehyde] | 5.68 | 6.14 | 
Nc1ccc(Oc2ccccc2)cc1 [4-Phenoxyaniline] | 15.1 | 75.3 | 
c1cc[nH]c1 [Pyrrole] |  |  | Half-Life of ADR Destruction, 100 μM Test Compound and 0.5 μM Riboflavin: 11.6 min
CC(=O)c1ccc2ccccc2c1 [2-Acetonaphthone] | 7.92 | 8.36 | 

Molecule | Half-Life of ADR Destruction, 100 μM Test Compound and 0.5 μM Riboflavin [1] [min] | Half-Life of ADR Destruction, 100 μM Test Compound [2] [min] | other results
O=C(O)Cc1ccsc1 [Thiophene-3-acetic acid] | 33.5 | 43.0 | 
Nc1ccc(CCC(=O)O)cc1 [3-(4-Aminophenyl) Propionic Acid] | 6.41 |  | 
Nc1cccc(CC(=O)O)c1 [3-Amino Phenylacetic acid] | 13.7 |  | 
Nc1ccc(C(=O)c2ccc(N)cc2)cc1 [4,4′-Diamino-benzophenone] | 27.4 |  | 
Nc1ccc(C(=O)NCC(=O)O)cc1 [p-Amino hippuric acid] | 11.1 | 50.2 | 
Nc1ccc([N+](=O)[O-])cc1[N+](=O)[O-] [2,4-Dinitro Aniline] |  |  | Half-Life of ADR Destruction, 100 μM Test Compound: 75.3 min; Half-Life of ADR Destruction, 100 μM Test Compound and 0.5 μM Riboflavin: 50.2 min
N[C@@H](Cc1ccc2ccccc2c1)C(=O)O [3-(2-Naphthyl)alanine] | 27.4 |  | 
3-Amino Phenylsulfone | 8.60 |  | 
C1=CCNC1 [Compound 3-Pyrroline, 3-Pyrroline] | 43.0 |  | 
COc1ccccc1C=CC=O [2-Methoxy Cinnamaldehyde] | 50.2 |  | 
Nc1cc2ccccc2cc1C(=O)O [3-Atninonaphthalene-2-carboxylic acid] | 50.2 | 75.3 | 
COc1ccc2c(C(=O)O)cccc2c1 [6-Methoxynaphthalene-1-carboyxlic acid] | 4.49 | 18.8 | 
CC(C(=O)O)c1ccc(-c2ccccc2)cc1 (stereo not drawn) [4-Phenyl α-Methyl-Phenylacetic Acid] | 27.4 |  | 
Nc1ccc(S(N)(=O)=O)cc1 [4-Amino Benzenesulfonamide] |  |  | Half-Life of ADR Destruction, 100 μM Test Compound and 0.5 μM Riboflavin: 25.1 min
COc1cccc(C(C)=O)c1 [3′-Methoxyacetophenone] | 33.4 | 33.4 | 
CN(C)c1ccc(CC(=O)O)cc1 [4-(Dimethylamino) Phenylacetic acid] | 100.3 |  | 
Cc1ccc(N)c(CO)c1 [2-Amino-5-Methyl Benzyl Alcohol] | 24.5 ± 8.0 |  | 
O=C(O)c1ccc2ccccc2c1 [Naphthalene-2-carboxylic acid] | 43.0 | 50.2 | 
O=C(O)CCOc1cccc2ccccc12 [3-(1-naphthyloxy) propionic acid] |  | 75.3 | 
Nc1ccc(C(=O)O)cc1O [4-Amino-3-Hydroxy Benzoic Acid] | 75.3 |  | 
COc1ccc2cc(C(=O)CCC(=O)O)c(OC)cc2c1 [3,6-Dimethoxy-γ-oxo-2-naphthalenebutyric acid] | 3.86 | 30.1 | 
COc1ccc2ccccc2c1CO [2-Methoxy-1-naphthalenemethanol] | 4.43 |  | 
